Results taken from ChEMBL document CHEMBL1153934, “Quantitative structure-activity relationship (QSAR) for a series of novel cannabinoid derivatives using descriptors derived from semi-empirical quantum-chemical calculations” (Bioorg Med Chem, 2009).

Legend:
Cannabinoid receptor 1 = Cannabinoid receptor 1 (Homo sapiens, UniProt P21554); assay: Binding affinity to CB1 receptor
Cannabinoid receptor 2 = Cannabinoid receptor 2 (Homo sapiens, UniProt P34972); assay: Binding affinity to CB2 receptor
Chain of Cannabinoid receptor 2 (P34972 whole entry): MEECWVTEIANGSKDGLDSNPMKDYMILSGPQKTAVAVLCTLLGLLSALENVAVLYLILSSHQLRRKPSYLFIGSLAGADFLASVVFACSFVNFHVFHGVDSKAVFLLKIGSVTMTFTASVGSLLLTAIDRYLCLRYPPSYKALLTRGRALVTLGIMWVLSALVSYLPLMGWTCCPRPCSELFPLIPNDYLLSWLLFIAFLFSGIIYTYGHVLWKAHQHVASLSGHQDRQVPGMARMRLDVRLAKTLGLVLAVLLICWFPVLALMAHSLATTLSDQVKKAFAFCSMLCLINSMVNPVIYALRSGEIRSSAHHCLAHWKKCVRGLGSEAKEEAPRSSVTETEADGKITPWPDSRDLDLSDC

Chain of Cannabinoid receptor 1 (P21554 whole entry): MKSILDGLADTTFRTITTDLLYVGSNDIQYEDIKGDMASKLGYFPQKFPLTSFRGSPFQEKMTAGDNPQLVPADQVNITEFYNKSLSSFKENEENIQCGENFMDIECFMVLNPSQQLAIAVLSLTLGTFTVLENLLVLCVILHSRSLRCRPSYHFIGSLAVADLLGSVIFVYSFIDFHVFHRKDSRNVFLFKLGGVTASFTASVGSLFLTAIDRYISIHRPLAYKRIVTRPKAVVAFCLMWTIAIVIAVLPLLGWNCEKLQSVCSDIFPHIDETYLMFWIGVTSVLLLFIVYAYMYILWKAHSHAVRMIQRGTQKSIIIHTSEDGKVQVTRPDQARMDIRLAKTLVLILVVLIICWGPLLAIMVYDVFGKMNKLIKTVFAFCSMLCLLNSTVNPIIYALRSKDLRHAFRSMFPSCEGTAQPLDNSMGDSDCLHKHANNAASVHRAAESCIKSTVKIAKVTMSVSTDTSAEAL

Structure (SMILES)	Ki (Cannabinoid receptor 1)	Ki (Cannabinoid receptor 2)
CC(=O)Nc1cccc(C(C)(C)c2cc(O)c3c(c2)OC(C)(C)[C@@H]2CC=C(C)C[C@@H]32)c1	0.0137 µM	0.0136 µM
CC1=CC[C@@H]2[C@@H](C1)c1c(O)cc(C=C3C4CC5CC(C4)CC3C5)cc1OC2(C)C	0.0486 µM	0.0089 µM
CC1=CC[C@@H]2[C@@H](C1)c1c(O)cc(CC3C4CC5CC(C4)CC3C5)cc1OC2(C)C (stereo not given in full)	0.0797 µM	0.076 µM
CC1=CC[C@@H]2[C@@H](C1)c1c(O)cc(C3C4CC5CC(C4)CC3C5)cc1OC2(C)C (stereo not given in full)	0.0349 µM	0.014 µM
CC1=CC[C@@H]2[C@@H](C1)c1c(O)cc(CC34CC5CC(CC(C5)C3)C4)cc1OC2(C)C	0.0293 µM	0.0269 µM
